pEC50: −log10 of the molar value.
Assays:
Type in all cases: cell-based
[1] = molecular target: T1, human β3 adrenergic receptor (Homo sapiens, UniProt P13945); assay: cAMP accumulation (SPA) in CHO cells transfected with human β3 adrenergic receptor; conditions: for pEC50: CHO cells expressing human β3-AR, cAMP, 30 min incubation, 10^−9 M to 10^−5 M, read-out: beta-3 EC50; for beta-3 (IA) maximal response relative to isoproterenol: IA = % activity compound / % activity isoproterenol at 10^−5 M, CHO human β3 cells
T1 construct: Full length β3 AR clones (402 amino acids) containing the last 6 amino acids of hβ3— AR are prepared; expressed in transfected cells; host or cells: CHO cells
Experimental: (§1) The ability of compounds of this invention to treat or inhibit disorders related to insulin resistance or hyperglycemia was established with representative compounds of this invention in the following standard pharmacological test procedures, which measured the binding selectivity to the β1, β2, and β3 adrenergic receptors. Binding to the receptors was measured in Chinese Hamster ovary (CHO) cells that were transfected with adrenergic receptors. The following briefly summarizes the procedures used and results obtained.
Cloning of Human β3-AR Genomic DNA: cDNA was constructed by ligating four polymerase chain reaction (PCR) products using the following primers: an ATG-Narl fragment, sense primer 5′-[…]3′ and anti-sense primer 5′[…]3′; a Narl-Accl fragment, 5′[…]3′ as sense and 5′[…]3′ as anti-sense primer; an Accli-Styl fragment, sense primer 5′[…]3′ and anti-sense primer 5′[…]3′ and a Styl-TAG fragment, with sense primer 5′[…]3′ and anti-sense primer 5′[…]3′. The corresponding primer sequences are described in Mantzoros, C. S., et.al., Diabetes 45: 909-914 (1996). The four fragments are ligated into a pUC 18 plasmid (Gibco-BRL) and sequenced. Full length β3 AR clones (402 amino acids) containing the last 6 amino acids of hβ3— AR are prepared with the β3-βARpcDNA3from ATTC.
(§2) Binding Procedure: Clones expressing receptor levels of 70 to 110 fmoles/mg protein were used in the test procedures. CHO cells were grown in 24-well tissue culture plates in Dulbecco's Modified Eagle Media with 10% fetal bovine serum, MEM non-essential amino acids, Penicillin-Streptompycin and Geneticin. On the day of test procedure, growth medium was replaced with preincubation media (Dulbecco's Modified Eagle Media and incubated for 30 minutes at 37° C. Preincubation medium was replaced with 0.2 ml treatment medium containing DMEM media containing 250 μM IBMX (isobutyl-1-methylxantine) plus 1 mM ascorbic acid with test compound dissolved in DMSO. Test compounds were tested over a concentration range of 10^−9 M to 10^−5 M for β3 cells and 10^−8 to 10^−4 M for β1 and β2 transfected cells. Isoproterenol (10^−5 M) was used as an internal standard for comparison of activity. Cells were incubated at 37° C. on a rocker for 30 min with the β3 cells and 15 min for β1 and β2 cells. Incubation was stopped with the addition of 0.2N HCl and neutralized with 2.5N NaOH. The plates, containing the cells and neutralized media, were stored at −20 degrees celsius until ready to test for cAMP using the SPA test kit (Amersham).
(§3) Data Analysis and Results: Data collected from the SPA test procedure were analyzed as per cent of the maximal isoproterenol response at 10^−5 M. Activity curves were plotted using the SAS statistical and graphics software. EC50 values were generated for each compound and the maximal response (IA) developed for each compound is compared to the maximal response of isoproternol at 10^−5 M from the following formula:
(§4) IA=% activity compound/% activity isoproterenol

[2] = molecular target: T2, human β1-adrenergic receptor (Homo sapiens, UniProt P08588); assay: cAMP accumulation (SPA) in CHO cells transfected with human β1 adrenergic receptor; conditions: for pEC50: CHO cells transfected with human β1-AR, cAMP, 15 min incubation, 10^−8 to 10^−4 M, read-out: beta-1 EC50; for beta-1 (IA) maximal response relative to isoproterenol: IA = % activity compound / % activity isoproterenol at 10^−5 M, CHO human β1 cells
T2 construct: expressed in transfected cells; host or cells: CHO cells
Experimental: as §1
(§5) Transfection of CHO cells with β1 and β2 adrenergic receptors: CHO cells were transfected with human β1- or β2-adrenergic receptors as described in Tate, K. M., Eur. J. Biochem., 196:357-361 (1991).
as §2, §3, §4

[3] = molecular target: T3, human β2-adrenergic receptor (Homo sapiens, UniProt P07550); assay: cAMP accumulation (SPA) in CHO cells transfected with human β2 adrenergic receptor; conditions: for pEC50: CHO cells transfected with human β2-AR, cAMP, 15 min incubation, 10^−8 to 10^−4 M, read-out: beta-2 EC50; for beta-2 (IA) maximal response relative to isoproterenol: IA = % activity compound / % activity isoproterenol at 10^−5 M, CHO human β2 cells
T3 construct: expressed in transfected cells; host or cells: CHO cells
Experimental: as §1, §5, §2, §3, §4

T3 sequence (P07550 whole entry): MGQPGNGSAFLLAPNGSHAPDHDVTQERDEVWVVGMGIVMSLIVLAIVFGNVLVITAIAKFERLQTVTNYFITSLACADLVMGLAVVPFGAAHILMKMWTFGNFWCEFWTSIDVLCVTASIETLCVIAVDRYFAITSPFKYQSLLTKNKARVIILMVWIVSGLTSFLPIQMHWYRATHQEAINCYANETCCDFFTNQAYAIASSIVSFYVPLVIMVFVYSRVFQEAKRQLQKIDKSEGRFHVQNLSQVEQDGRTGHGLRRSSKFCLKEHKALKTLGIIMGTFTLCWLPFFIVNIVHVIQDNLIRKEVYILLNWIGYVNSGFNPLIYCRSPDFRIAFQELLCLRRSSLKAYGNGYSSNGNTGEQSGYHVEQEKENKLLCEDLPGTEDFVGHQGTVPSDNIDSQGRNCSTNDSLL
T2 sequence (P08588 whole entry): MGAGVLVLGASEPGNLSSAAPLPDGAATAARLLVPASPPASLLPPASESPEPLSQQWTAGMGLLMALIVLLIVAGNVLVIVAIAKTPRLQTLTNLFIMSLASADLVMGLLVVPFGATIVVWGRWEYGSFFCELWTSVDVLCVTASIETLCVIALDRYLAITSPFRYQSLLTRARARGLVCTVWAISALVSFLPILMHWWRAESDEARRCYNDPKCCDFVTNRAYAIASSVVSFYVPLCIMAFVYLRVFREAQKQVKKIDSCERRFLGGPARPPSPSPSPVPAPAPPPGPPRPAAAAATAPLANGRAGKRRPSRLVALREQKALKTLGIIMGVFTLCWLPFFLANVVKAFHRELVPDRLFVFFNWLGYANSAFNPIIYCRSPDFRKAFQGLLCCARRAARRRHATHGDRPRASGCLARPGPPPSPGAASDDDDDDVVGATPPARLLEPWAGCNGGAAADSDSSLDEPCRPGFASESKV
T1 sequence (P13945 whole entry): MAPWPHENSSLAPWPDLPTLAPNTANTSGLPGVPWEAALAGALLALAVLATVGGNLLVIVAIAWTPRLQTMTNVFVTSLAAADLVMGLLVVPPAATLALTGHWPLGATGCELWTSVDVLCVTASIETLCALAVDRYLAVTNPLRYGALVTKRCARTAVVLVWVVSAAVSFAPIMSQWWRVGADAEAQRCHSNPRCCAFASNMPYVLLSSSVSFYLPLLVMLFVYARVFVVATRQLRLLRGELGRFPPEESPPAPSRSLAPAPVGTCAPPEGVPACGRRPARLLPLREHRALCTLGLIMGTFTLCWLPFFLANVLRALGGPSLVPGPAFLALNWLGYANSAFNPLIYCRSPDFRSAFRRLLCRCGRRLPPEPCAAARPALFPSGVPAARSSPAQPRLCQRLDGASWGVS

SMILES | pEC50 [1] | beta-3 (IA) maximal response relative to isoproterenol [1] | pEC50 [2] | beta-1 (IA) maximal response relative to isoproterenol [2] | pEC50 [3] | beta-2 (IA) maximal response relative to isoproterenol [3]
CCOC(=O)[C@H](CC(C)C)NS(=O)(=O)c1ccc(N2CCC(NC[C@H](O)c3ccc(O)c(NS(C)(=O)=O)c3)CC2)cc1 [Example 37, Ethyl (2S)-2-{[(4-{4-[((2R)-2-Hydroxy-2-{4-hydroxy-3-[(methylsulfonyl)amino]-phenyl}ethyl)amino]-1-piperidinyl}phenyl)sulfonyl]amino}-4-methylpentanoate] | 7.80 | (0.89) | 5.25 | (0.43) | 6.05 | (0.42)
CCOC(=O)[C@@H](NS(=O)(=O)c1ccc(N2CCC(NC[C@H](O)c3ccc(O)c(NS(C)(=O)=O)c3)CC2)cc1)C(C)C [Example 38, Ethyl (2S)-2-{[(4-{4-[((2R)-2-hydroxy-2-{4-hydroxy-3-[(methylsulfonyl)amino]-phenyl}ethyl)amino]-1-piperidinyl}phenyl)sulfonyl]amino}-3-methylbutanoate] | 7.49 | (1.1) | 5.96 | (0.5) | 6.42 | (0.32)
CS(=O)(=O)Nc1cc([C@@H](O)CNC2CCN(c3ccc(S(=O)(=O)N4CCC[C@H]4C(=O)O)cc3)CC2)ccc1O [Example 39, (2S)-1-[(4-{4-[((2R)-2-Hydroxy-2-{4-hydroxy-3-[(methylsulfonyl)amino]-phenyl}ethyl)amino]-1-piperidinyl}phenyl)sulfonyl]-2-pyrrolidinecarboxylic Acid] | 7.52 | (1) | 5.00 | (0.42) |  | (0.23)
CS(=O)(=O)Nc1cc([C@@H](O)CNC2CCN(c3ccc(S(=O)(=O)N4CCCC4)cc3)CC2)ccc1O [Example 41, N-{2-Hydroxy-5-[(1R)-1-hydroxy-2-({1-[4-(1-pyrrolidinylsulfonyl)phenyl]-piperidinyl}-4-amino)ethyl]phenyl}methanesulfonamide] | 8.70 | (1) | 6.10 | (0.58) | 5.70 | (0.24)
CS(=O)(=O)Nc1cc([C@@H](O)CNC2CCN(c3ccc(S(=O)(=O)N4CCCCC4)cc3)CC2)ccc1O [Example 42, N-{2-Hydroxy-5-[(1R)-1-hydroxy-2-({1-[4-(1-piperidinylsulfonyl)phenyl]-piperidinyl}-4-amino)ethyl]phenyl}methanesulfonamide] | 9.00 | (1) | 5.88 | (0.69) | 6.43 | (0.35)
CCOC(=O)CN(C(C)C)S(=O)(=O)c1ccc(N2CCC(NC[C@H](O)c3ccc(O)c(NS(C)(=O)=O)c3)CC2)cc1 [Example 44] | 8.52 | (0.95) | 4.92 | (0.71) | 5.70 | (0.43)
CS(=O)(=O)Nc1cc([C@@H](O)CNC2CCN(c3ccc(S(=O)(=O)NCC(=O)O)cc3)CC2)ccc1O [Example 53, 2-{[(4-{4-[((2R)-2-hydroxy-2-{4-hydroxy-3-[(methylsulfonyl)amino]phenyl}ethyl)amino]-1-piperidinyl}phenyl)sulfonyl]amino}acetic Acid] | 7.47 | (1.2) |  | (0.24) |  | (0.23)
COC(=O)CNS(=O)(=O)c1ccc(N2CCC(NC[C@H](O)c3ccc(O)c(NS(C)(=O)=O)c3)CC2)cc1 [Example 57, Methyl 2-{[(4-{4-[((2R)-2-Hydroxy-2-{4-hydroxy-3-[(methylsulfonyl)amino]-phenyl}ethyl)amino]-1-piperidinyl}phenyl)sulfonyl]amino}acetate] | 8.22 | (0.85) |  | (0.18) |  | (0.18)
COC(=O)N(CC(=O)O)S(=O)(=O)c1ccc(N2CCC(NC[C@H](O)c3ccc(O)c(NS(C)(=O)=O)c3)CC2)cc1 [Example 60, [[(4-{4-[((2R)-2-Hydroxy-2-{4-hydroxy-3-[(methylsulfonyl)amino]phenyl}-ethyl)amino]piperidin-1-yl}phenyl)sulfonyl](methoxycarbonyl)amino]acetic Acid] | 7.68 | (1.1) | 5.00 | (0.18) | 5.00 | (0.21)
CS(=O)(=O)Nc1cc([C@@H](O)CNC2CCN(c3ccc(S(=O)(=O)N(CC(=O)O)Cc4cc(F)ccc4F)cc3)CC2)ccc1O [Example 63, 2-{(2,5-Difluorobenzyl)[(4-{4-[((2R)-2-hydroxy-2-{4-hydroxy-3-[(methylsulfonyl)-amino]phenyl}ethyl)amino]-1-piperidinyl}phenyl)sulfonyl]amino}acetic acid] | 8.30 | (0.91) | 5.00 | (0.88) |  | (0.15)
CS(=O)(=O)Nc1cc([C@@H](O)CNC2CCN(c3ccc(S(=O)(=O)N4CCN(CC(=O)O)CC4)cc3)CC2)ccc1O [Example 65] | 6.80 | (0.93) |  | (0.23) | 4.80 | (0.67)
CC(C)(C)OC(=O)CN(Cc1cc(F)ccc1F)S(=O)(=O)c1ccc(N2CCC(NC[C@H](O)c3ccc(O)c(NS(C)(=O)=O)c3)CC2)cc1 [Example 67, tert-Butyl {(2,5-difuorobenzyl)[(4-{4-[((2R)-2-hydroxy-2-{4-hydroxy-3-[(methylsulfonyl)amino]phenyl}ethyl)amino]piperidin-1-yl}phenyl)sulfonyl]-amino}acetate] | 8.30 | (0.96) | 6.00 | (0.48) |  | (0.17)
